According to patent US5756121A, “Antibiotic formulation and use for drug resistant infections” (NeXstar Pharmaceuticals, Inc., priority 1995, dated 1998):
Several values for one entry are separate records, joined by “and”; a condition that tells them apart may be missing. Identical values can stand only once.

What was measured:
MAC (101, type 1) = assay: Treatment of MAC-infected beige mice, first experiment (organism burden in spleen, liver, lung); format: in vivo
Protocol: The testing of liposome encapsulated amikacin for the treatment of MAC was performed using a murine model. Beige mice (C57B1/6bg^j /bg^j) were infected with MAC (101, type 1). The mice were infected by injection of 1×10^7 Colony Forming Units (cfu) in the mouse tail vein (i.v.). Three experiments were performed. In the first experiment, 40, 80 and 120 milligrams of amikacin (liposomal and free) per kilogram of mouse body-weight was given i.v. daily for 5 days, beginning 7 days after infection. The animals were sacrificed 5 days after treatment was completed and the liver, lung and spleen tissue were plated. Quantitation of organisms in liver, spleen and lung tissue was performed. The cfu were determined by growth on Middlebrook 7h11 agar plates. Untreated and empty liposomes were used as controls.
The liposomes were prepared as in Example 1. This experiment was performed in two identical parts. The liposomes in the first part were of an average size of 49.8 nm and the average size of the liposomes in the second part were 73.7 nm (mean diameter). The amikacin concentration was either 15.0 mg/ml or 13.21 mg/ml and the total lipid concentration was either 121 mg/ml or 55.7 mg/ml respectively (drug to lipid ratios: 0.123, 0.24). Free drug for all experiments was prepared in the same buffer that the liposomal formulations were contained in.

Pseudomonas aeruginosa = assay: Efficacy and toxicity in Pseudomonas infected mice (mortality); format: in vivo, Pseudomonas aeruginosa (clinical isolate) in CF-1 mice
Protocol: The efficacy and toxicity of liposomal amikacin in Pseudomonas infected mice was tested. CF-1 mice were used (females, 6-8 weeks old). The mice were obtained from Jackson Labs. A clinical isolate of Pseudomonas aeruginosa was obtained on a Mueller Hinton/MacConkey blood agar plate. The organisms were transferred to a Mueller Hinton plate and grown for 24 hours. Colonies were transferred to saline and grown for 48 hours. The samples were frozen in saline containing 15% fetal calf serum at 1×10^8 organisms/ml (MacFarland Standard). The colonies were stored at -70° C. The colonies were thawed and grown in a Mueller Hinton plate for 24 hours. The bacteria were adjusted to 8×10^6 organisms/ml in saline containing talc (62.5 mg/ml) and 1 ml was injected intraperitoneal. A culture of inoculum on MH agar for 24 hours determined that approximately 7×10^6 cfu were delivered per mouse. Liposomal amikacin and empty liposomes were prepared as set out in Example 2. […] The lipid concentration was 95.31 mg/ml and the amikacin concentration was 23.54 mg/ml (0.25 drug/lipid ratio). The pH of the solution containing the formulation was 7.31. […] The concentration of the free amikacin solution was 23.54 mg/ml. The pH of the solution containing the liposomes was 7.33.
Mice were treated with 40 mg/kg (drug per body-weight), 80 mg/kg, 120 mg/kg and 240 mg/kg of liposomal amikacin. Mice were also treated with 40 mg/kg, 80 mg/kg, and 120 mg/kg of free amikacin. The drugs were administered intravenously in the caudal vein. Two doses were given; one at four hours after infection and one at twenty-four hours after infection.

in vivo = assay: in vivo; parameters: species or system mouse (C57B1/6); details: mouse
Protocol: Amikacin content was measured in mouse (C57B1/6, females 2-3 months old) plasma after injection (i.v.) of free amikacin or liposomal amikacin (100 mg/kg). Liposomal amikacin was prepared as described in Example 2. Blood samples were obtained at various time intervals. The samples were collected by removing 100 microliters of blood, retroorbitally, from nonanesthetized mice. The samples were collected in heparinized capillary pipets which were plugged with modeling clay. The samples were centrifuged at 3250 rpm (20 cm rotor) for 10 minutes. The samples were analyzed using a radioimmunoassay (Diagnostic Products). The liposomal amikacin formulation contained liposomes with an average size of 43.6 nm (median diameter). The amikacin concentration was 10.09 mg/ml and the total lipid concentration was 56.8 mg/ml (drug to lipid ratio […]).

[1] = tested on: M. tuberculosis, drug susceptible strain H37RV; assay: Activity against drug susceptible TB in infected human monocyte-derived macrophages; format: cell-based, Mycobacterium tuberculosis (in human macrophages); details: for CFU: duplicate values
[2] = mice, 150 mg/kg; known in the art; cited from earlier work

**Q.** Which results are given for `NCC[C@H](O)C(=O)N[C@@H]1C[C@H](N)[C@@H](O[C@H]2O[C@H](CN)[C@@H](O)[C@H](O)[C@H]2O)[C@H](O)[C@H]1O[C@H]1O[C@H](CO)[C@@H](O)[C@H](N)[C@H]1O` [amikacin]?
**A.** Lung log cfu/gram (MAC (101, type 1); 40 mg/kg i.v. daily for 5 days): 6.16 log; Lung log cfu/gram (MAC (101, type 1); 80 mg/kg i.v. daily for 5 days): 6.11 log; Lung log cfu/gram (MAC (101, type 1); 120 mg/kg i.v. daily for 5 days): 6.00 log; Mortality #died/#tested (Pseudomonas aeruginosa; 40 mg/kg i.v., two doses (4 h and 24 h after infection), 24 hours post infection): 1/4; Mortality #died/#tested (Pseudomonas aeruginosa; 40 mg/kg i.v., two doses, 30 hours post infection): 1/4; Mortality #died/#tested (Pseudomonas aeruginosa; 40 mg/kg i.v., two doses, 48 hours post infection): 1/4; Mortality #died/#tested (Pseudomonas aeruginosa; 40 mg/kg i.v., two doses, 72 hours post infection): 1/4; Mortality #died/#tested (Pseudomonas aeruginosa; 80 mg/kg i.v., two doses (4 h and 24 h after infection), 24 hours post infection): 0/6; Mortality #died/#tested (Pseudomonas aeruginosa; 80 mg/kg i.v., two doses, 30 hours post infection): 0/6; Mortality #died/#tested (Pseudomonas aeruginosa; 80 mg/kg i.v., two doses, 48 hours post infection): 0/6; Mortality #died/#tested (Pseudomonas aeruginosa; 80 mg/kg i.v., two doses, 72 hours post infection): 0/6; Mortality #died/#tested (Pseudomonas aeruginosa; 120 mg/kg i.v., two doses (4 h and 24 h after infection), 24 hours post infection): 0/6; Mortality #died/#tested (Pseudomonas aeruginosa; 120 mg/kg i.v., two doses, 30 hours post infection): 0/6; Mortality #died/#tested (Pseudomonas aeruginosa; 120 mg/kg i.v., two doses, 48 hours post infection): 0/6; Mortality #died/#tested (Pseudomonas aeruginosa; 120 mg/kg i.v., two doses, 72 hours post infection): 0/6; Average plasma concentration of amikacin (in vivo; 100 mg/kg i.v., 6 hours): none detected; concentration at 5 min (in vivo; in vivo, iv, 100 mg/kg): 406 µg/mL; concentration at 0.25 h (in vivo; in vivo, iv, 100 mg/kg): 106 µg/mL; concentration at 2 h (in vivo; in vivo, iv, 100 mg/kg): 65 µg/mL; inhibition / killing of drug susceptible bacteria (in words) ([1]; 1 μg/ml): inhibited the growth of the bacteria; CFU ([1]; 1 μg/ml, day 4): 50 1 × 10^3 cfu per monolayer and 60 1 × 10^3 cfu per monolayer; CFU ([1]; 1 μg/ml, day 7): 900 1 × 10^3 cfu per monolayer and 800 1 × 10^3 cfu per monolayer; inhibition / killing of drug susceptible bacteria (in words) ([1]; 2 μg/ml, day 4): inhibition; CFU ([1]; 2 μg/ml, day 4): 20 1 × 10^3 cfu per monolayer; CFU ([1]; 2 μg/ml, day 7): 40 1 × 10^3 cfu per monolayer and 50 1 × 10^3 cfu per monolayer; inhibition / killing of drug susceptible bacteria (in words) ([1]; 4 μg/ml, day 4): killing at day 4; CFU ([1]; 4 μg/ml, day 4): 4 1 × 10^3 cfu per monolayer and 5 1 × 10^3 cfu per monolayer; CFU ([1]; 4 μg/ml, day 7): 1.5 1 × 10^3 cfu per monolayer and 3 1 × 10^3 cfu per monolayer; lethality (in words) [2]: will kill many of the mice injected
